Experimental data from patent US20200354426A1 (MEDIMMUNE LIMITED, priority 2016, published 2020).
Values joined by “and” are separate entries in the source; they are usually repeats but may differ in a detail not shown here. Equal values may be shown once. Read-outs that look alike come from different tables or passages of the source. Numbered stars: 1 amine (or outer) side, 2 acyl side, 3 side chain; on linkers, the order of the positions; unused ones are H or OH. Side chains are listed from the residue outwards. Peptide text beside a SMILES is read from it. * marks the point of attachment. γGlu = O=C(O)[C@H](CCC(=O)[*:2])N[*:1]; Palmitoyl = CCCCCCCCCCCCCCCC(=O)*

How the values were obtained:
Assay in all cases: cAMP activity assay in assay medium (assay 1)
Assay type in all cases: cell-based
Settings in all cases: assay medium
Human GlucR = molecular target: T1, Human GlucR (Homo sapiens, UniProt P47871)
T1 construct: expressed in transfected cells
T1 sequence (P47871 26-477): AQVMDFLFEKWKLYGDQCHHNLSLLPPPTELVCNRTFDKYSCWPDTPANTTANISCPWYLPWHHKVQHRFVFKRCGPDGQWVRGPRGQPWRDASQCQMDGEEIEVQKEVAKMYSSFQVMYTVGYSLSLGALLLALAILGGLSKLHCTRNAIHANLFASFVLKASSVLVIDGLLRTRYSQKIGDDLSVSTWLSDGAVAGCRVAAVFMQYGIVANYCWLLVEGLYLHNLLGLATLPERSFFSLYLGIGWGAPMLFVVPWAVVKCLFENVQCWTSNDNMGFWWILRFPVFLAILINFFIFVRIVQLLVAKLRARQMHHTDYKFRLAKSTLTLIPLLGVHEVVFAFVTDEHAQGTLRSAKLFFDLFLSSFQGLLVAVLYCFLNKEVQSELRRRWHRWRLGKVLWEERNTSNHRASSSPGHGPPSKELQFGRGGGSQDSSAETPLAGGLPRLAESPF
Excerpt: (§1) Biological Activity of Peptides in Cell-Based cAMP Activity Assay (Assay 1):
(§2) All sample dilutions were made in duplicate.

Human GIPr = molecular target: T2, Human GIPr (Homo sapiens, UniProt P48546)
T2 construct: expressed in transfected cells
T2 sequence (P48546 22-466): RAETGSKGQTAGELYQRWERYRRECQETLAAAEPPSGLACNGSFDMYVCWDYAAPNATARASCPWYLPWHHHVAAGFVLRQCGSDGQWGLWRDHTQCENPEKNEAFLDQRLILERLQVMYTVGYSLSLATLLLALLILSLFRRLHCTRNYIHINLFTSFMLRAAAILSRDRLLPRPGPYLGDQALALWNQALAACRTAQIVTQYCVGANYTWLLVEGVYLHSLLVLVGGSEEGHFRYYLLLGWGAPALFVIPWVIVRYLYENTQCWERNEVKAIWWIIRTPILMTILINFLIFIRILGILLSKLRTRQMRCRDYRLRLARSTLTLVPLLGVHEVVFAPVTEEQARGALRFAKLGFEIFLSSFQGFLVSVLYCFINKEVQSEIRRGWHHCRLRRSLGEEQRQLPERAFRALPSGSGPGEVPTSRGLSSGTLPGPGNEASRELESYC
Excerpt: as §1, §2

Human GLP1R = Human GLP1R (Homo sapiens, UniProt P43220); design: expressed in transfected cells
Chain of Human GLP1R (P43220 24-463): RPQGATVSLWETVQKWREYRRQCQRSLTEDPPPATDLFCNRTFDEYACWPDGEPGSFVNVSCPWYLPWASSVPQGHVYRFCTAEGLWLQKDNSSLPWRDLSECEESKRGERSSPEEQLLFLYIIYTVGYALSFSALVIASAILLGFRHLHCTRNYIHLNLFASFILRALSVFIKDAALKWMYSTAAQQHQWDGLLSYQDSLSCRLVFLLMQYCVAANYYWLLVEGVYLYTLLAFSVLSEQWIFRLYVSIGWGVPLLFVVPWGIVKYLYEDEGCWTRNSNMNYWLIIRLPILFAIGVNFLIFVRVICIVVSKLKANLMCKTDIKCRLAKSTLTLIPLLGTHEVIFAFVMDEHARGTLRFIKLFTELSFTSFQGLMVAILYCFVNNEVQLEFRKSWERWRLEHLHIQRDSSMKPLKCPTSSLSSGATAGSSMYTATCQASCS
Excerpt: as §1, §2

[1] = Table 3, C-terminal acid peptides, read-out: Human GlucR EC50
[2] = Table 3, C-terminal acid peptides, read-out: Human GIPr EC50
[3] = Table 3, C-terminal acid peptides, read-out: Human GLP1R EC50

| SMILES | EC50 (Human GlucR; [1]) | EC50 (Human GIPr; [2]) | EC50 (Human GLP1R; [3]) | EC50 (Human GlucR; Table 4, read-out: hGlucR EC50) | EC50 (Human GIPr; Table 4, read-out: hGIPR EC50) | EC50 (Human GLP1R; Table 4, read-out: hGLP1R EC50) |
| --- | --- | --- | --- | --- | --- | --- |
| CC(C)C[C@H](NC(=O)[C@H](Cc1ccc(O)cc1)NC(=O)[C@H](CCCCN)NC(=O)[C@H](CO)NC(=O)[C@H](Cc1ccc(O)cc1)NC(=O)[C@H](CC(=O)O)NC(=O)[C@H](CO)NC(=O)[C@@H](NC(=O)[C@H](Cc1ccccc1)NC(=O)[C@@H](NC(=O)CNC(=O)[C@H](CCC(N)=O)NC(=O)[C@H](CO)NC(=O)[C@@H](N)Cc1c[nH]cn1)[C@@H](C)O)[C@@H](C)O)C(=O)N[C@@H](CC(=O)O)C(=O)N[C@@H](CO)C(=O)N[C@@H](CCCNC(=N)N)C(=O)N[C@@H](CCCNC(=N)N)C(=O)N[C@@H](C)C(=O)N[C@@H](CCC(N)=O)C(=O)N[C@@H](CC(=O)O)C(=O)N[C@@H](Cc1ccccc1)C(=O)N[C@H](C(=O)N[C@@H](CCC(N)=O)C(=O)N[C@@H](Cc1c[nH]c2ccccc12)C(=O)N[C@@H](CC(C)C)C(=O)N[C@H](C(=O)N[C@@H](CCCNC(=N)N)C(=O)NCC(=O)NCC(=O)NCC(=O)NCC(=O)NCC(=O)NCC(N)=O)C(C)C)C(C)C [g315] | – | – | – | 5.04 pM | 19700 pM | 27.3 pM |
| CCCCCCCCCCCCCCCC(=O)N[C@@H](CCC(=O)NCCCC[C@H](NC(=O)[C@H](CO)NC(=O)[C@H](CC(=O)O)NC(=O)[C@H](CC(C)C)NC(=O)[C@H](Cc1ccc(O)cc1)NC(=O)[C@H](CCCCN)NC(=O)[C@H](CO)NC(=O)[C@H](Cc1ccc(O)cc1)NC(=O)[C@H](CC(=O)O)NC(=O)[C@H](CO)NC(=O)[C@@H](NC(=O)[C@H](Cc1ccccc1)NC(=O)[C@@H](NC(=O)CNC(=O)[C@H](CCC(N)=O)NC(=O)[C@H](CO)NC(=O)[C@@H](N)Cc1c[nH]cn1)[C@@H](C)O)[C@@H](C)O)C(=O)N[C@@H](CCCNC(=N)N)C(=O)N[C@@H](C)C(=O)N[C@@H](CCC(=O)O)C(=O)N[C@@H](CC(=O)O)C(=O)N[C@@H](Cc1ccccc1)C(=O)N[C@H](C(=O)N[C@@H](CCC(N)=O)C(=O)N[C@@H](Cc1c[nH]c2ccccc12)C(=O)N[C@@H](CC(C)C)C(=O)N[C@H](C(=O)N[C@@H](C)C(=O)NCC(=O)NCC(N)=O)C(C)C)C(C)C)C(=O)O [g599] | – | – | – | 96.2 pM and 69.8 pM | 113000 pM and 112000 pM | – |
| CCCCCCCCCCCCCCCC(=O)N[C@@H](CCC(=O)NCCCC[C@H](NC(=O)[C@H](CC(=O)O)NC(=O)[C@H](CO)NC(=O)[C@@H](NC(=O)[C@H](Cc1ccccc1)NC(=O)[C@@H](NC(=O)CNC(=O)[C@H](CCC(N)=O)NC(=O)[C@H](CO)NC(=O)[C@@H](N)Cc1c[nH]cn1)[C@@H](C)O)[C@@H](C)O)C(=O)N[C@@H](CO)C(=O)N[C@@H](CCCCN)C(=O)N[C@@H](Cc1ccc(O)cc1)C(=O)N[C@@H](CC(C)C)C(=O)N[C@@H](CC(=O)O)C(=O)N[C@@H](CO)C(=O)N[C@@H](CCCNC(=N)N)C(=O)N[C@@H](CCCNC(=N)N)C(=O)N[C@@H](C)C(=O)N[C@@H](CCC(N)=O)C(=O)N[C@@H](CC(=O)O)C(=O)N[C@@H](Cc1ccccc1)C(=O)N[C@H](C(=O)N[C@@H](CCC(N)=O)C(=O)N[C@@H](Cc1c[nH]c2ccccc12)C(=O)N[C@@H](CC(C)C)C(=O)N[C@@H](CCC(=O)O)C(=O)N[C@@H](C)C(=O)NCC(=O)NCC(N)=O)C(C)C)C(=O)O [g717] (H-HSQGTFTSDK([γGlu-Palmitoyl])SKYLDSRRAQDFVQWLEAGG-NH2; N-terminus assumed) | – | – | – | – | 1480 pM | 5.77 pM |
| CCCCCCCCCCCCCCCC(=O)N[C@@H](CCC(=O)NCCCC[C@H](NC(=O)[C@H](Cc1ccc(O)cc1)NC(=O)[C@H](CCCCN)NC(=O)[C@H](CO)NC(=O)[C@H](Cc1ccc(O)cc1)NC(=O)[C@H](CC(=O)O)NC(=O)[C@H](CO)NC(=O)[C@@H](NC(=O)[C@H](Cc1ccccc1)NC(=O)[C@@H](NC(=O)CNC(=O)[C@H](CCC(N)=O)NC(=O)[C@H](CO)NC(=O)[C@@H](N)Cc1c[nH]cn1)[C@@H](C)O)[C@@H](C)O)C(=O)N[C@@H](CC(=O)O)C(=O)N[C@@H](CO)C(=O)N[C@@H](CCCNC(=N)N)C(=O)N[C@@H](CCCNC(=N)N)C(=O)N[C@@H](C)C(=O)N[C@@H](CCCNC(=N)N)C(=O)N[C@@H](CC(=O)O)C(=O)N[C@@H](Cc1ccccc1)C(=O)N[C@H](C(=O)N[C@@H](C)C(=O)N[C@@H](Cc1c[nH]c2ccccc12)C(=O)N[C@@H](CC(C)C)C(=O)N[C@@H](CCC(=O)O)C(=O)N[C@@H](C)C(=O)NCC(=O)NCC(N)=O)C(C)C)C(=O)O [g780] (H-HSQGTFTSDYSKYK([γGlu-Palmitoyl])DSRRARDFVAWLEAGG-NH2; N-terminus assumed) | – | – | – | – | 64000 pM | 12 pM |
| CCCCCCCCCCCCCCCC(=O)N[C@@H](CCC(=O)NCCCC[C@H](NC(=O)[C@H](CC(=O)O)NC(=O)[C@H](CO)NC(=O)[C@@H](NC(=O)[C@H](Cc1ccccc1)NC(=O)[C@@H](NC(=O)CNC(=O)[C@H](CCC(N)=O)NC(=O)[C@H](CO)NC(=O)[C@@H](N)Cc1c[nH]cn1)[C@@H](C)O)[C@@H](C)O)C(=O)N[C@@H](CO)C(=O)N[C@@H](CCCCN)C(=O)N[C@@H](Cc1ccc(O)cc1)C(=O)N[C@@H](CC(C)C)C(=O)N[C@@H](CC(=O)O)C(=O)N[C@@H](CO)C(=O)N[C@@H](CCC(=O)O)C(=O)N[C@@H](CCCNC(=N)N)C(=O)N[C@@H](C)C(=O)N[C@@H](CCCNC(=N)N)C(=O)N[C@@H](CC(=O)O)C(=O)N[C@@H](Cc1ccccc1)C(=O)N[C@H](C(=O)N[C@@H](C)C(=O)N[C@@H](Cc1c[nH]c2ccccc12)C(=O)N[C@@H](CC(C)C)C(=O)N[C@@H](CCC(=O)O)C(=O)N[C@@H](C)C(=O)NCC(=O)NCC(N)=O)C(C)C)C(=O)O [g798] (H-HSQGTFTSDK([γGlu-Palmitoyl])SKYLDSERARDFVAWLEAGG-NH2; N-terminus assumed) | – | – | – | – | 1510 pM | 9.07 pM |
| CCCCCCCCCCCCCCCC(=O)N[C@@H](CCC(=O)NCCCC[C@H](NC(=O)[C@H](CC(=O)O)NC(=O)[C@H](CO)NC(=O)[C@@H](NC(=O)[C@H](Cc1ccccc1)NC(=O)[C@@H](NC(=O)CNC(=O)[C@H](CCC(N)=O)NC(=O)[C@H](CO)NC(=O)[C@@H](N)Cc1c[nH]cn1)[C@@H](C)O)[C@@H](C)O)C(=O)N[C@@H](CO)C(=O)N[C@@H](CCCNC(=N)N)C(=O)N[C@@H](Cc1ccc(O)cc1)C(=O)N[C@@H](CC(C)C)C(=O)N[C@@H](CC(=O)O)C(=O)N[C@@H](CO)C(=O)N[C@@H](CCC(=O)O)C(=O)N[C@@H](CCCNC(=N)N)C(=O)N[C@@H](C)C(=O)N[C@@H](CCCNC(=N)N)C(=O)N[C@@H](CC(=O)O)C(=O)N[C@@H](Cc1ccccc1)C(=O)N[C@H](C(=O)N[C@@H](C)C(=O)N[C@@H](Cc1c[nH]c2ccccc12)C(=O)N[C@@H](CC(C)C)C(=O)N[C@@H](CCC(=O)O)C(=O)N[C@@H](C)C(=O)NCC(=O)NCC(N)=O)C(C)C)C(=O)O [g848] (H-HSQGTFTSDK([γGlu-Palmitoyl])SRYLDSERARDFVAWLEAGG-NH2; N-terminus assumed) | – | – | – | – | 2770 pM | 9.42 pM |

Other lines, results leading:

| EC50 (Human GlucR; [1]) | EC50 (Human GIPr; [2]) | EC50 (Human GLP1R; [3]) | EC50 (Human GlucR; Table 4, read-out: hGlucR EC50) | EC50 (Human GIPr; Table 4, read-out: hGIPR EC50) | EC50 (Human GLP1R; Table 4, read-out: hGLP1R EC50) | SMILES |
| --- | --- | --- | --- | --- | --- | --- |
| 6.3 pM | 3600 pM | 18 pM | – | – | – | CCCCCCCCCCCCCCCC(=O)N[C@@H](CCC(=O)NCCCC[C@H](NC(=O)[C@H](CC(=O)O)NC(=O)[C@H](CO)NC(=O)[C@@H](NC(=O)[C@H](Cc1ccccc1)NC(=O)[C@@H](NC(=O)CNC(=O)[C@H](CCC(N)=O)NC(=O)[C@H](CO)NC(=O)[C@@H](N)Cc1c[nH]cn1)[C@@H](C)O)[C@@H](C)O)C(=O)N[C@@H](CO)C(=O)N[C@@H](CCCCN)C(=O)N[C@@H](Cc1ccc(O)cc1)C(=O)N[C@@H](CC(C)C)C(=O)N[C@@H](CCC(=O)O)C(=O)NCC(=O)N[C@@H](CCC(N)=O)C(=O)N[C@@H](C)C(=O)N[C@@H](C)C(=O)N[C@@H](CCCCN)C(=O)N[C@@H](CCC(=O)O)C(=O)N[C@@H](Cc1ccccc1)C(=O)N[C@H](C(=O)N[C@@H](C)C(=O)N[C@@H](Cc1c[nH]c2ccccc12)C(=O)N[C@@H](CC(C)C)C(=O)N[C@@H](CCC(=O)O)C(=O)N[C@@H](CCCCN)C(=O)NCC(=O)N[C@@H](CCCNC(=N)N)C(=O)O)[C@@H](C)CC)C(=O)O [Peptide G934] |
| 8.9 pM | 47000 pM | 12 pM | – | – | – | CCCCCCCCCCCCCCCC(=O)N[C@@H](CCC(=O)NCCCC[C@H](NC(=O)[C@H](CC(=O)O)NC(=O)[C@H](CO)NC(=O)[C@@H](NC(=O)[C@H](Cc1ccccc1)NC(=O)[C@@H](NC(=O)CNC(=O)[C@H](CCC(N)=O)NC(=O)[C@H](CO)NC(=O)[C@@H](N)Cc1c[nH]cn1)[C@@H](C)O)[C@@H](C)O)C(=O)N[C@@H](CO)C(=O)N[C@@H](CO)C(=O)N[C@@H](Cc1ccc(O)cc1)C(=O)N[C@@H](CC(C)C)C(=O)N[C@@H](CC(=O)O)C(=O)N[C@@H](CO)C(=O)N[C@@H](CCCNC(=N)N)C(=O)N[C@@H](CO)C(=O)N[C@@H](C)C(=O)N[C@@H](CCCNC(=N)N)C(=O)N[C@@H](CC(=O)O)C(=O)N[C@@H](Cc1ccccc1)C(=O)N[C@H](C(=O)N[C@@H](C)C(=O)N[C@@H](Cc1c[nH]c2ccccc12)C(=O)N[C@@H](CC(C)C)C(=O)N[C@@H](CCC(=O)O)C(=O)N[C@@H](C)C(=O)NCC(=O)NCC(=O)O)C(C)C)C(=O)O [Peptide G973] |
